Laboratory results as given in publication PMC8224038, “Anti-Leukemic Properties of Aplysinopsin Derivative EE-84 Alone and Combined to BH3 Mimetic A-1210477” (Marine Drugs, 2021).
Where two headings read alike, the source gives them in different places.

Legend:
K562IR cells = assay: Seahorse XFp Glycolysis Stress test (ECAR); type: cell-based, human; settings: EE-84 100 μM, 72 h
Method: (§1) The oxygen consumption rate (OCR) was measured using a Seahorse XFp Cell Mito Stress Assay (#103010-100, Agilent Technologies, Seoul, Korea) ran on a Seahorse XFp analyzer (Agilent Technologies, Seoul, Korea) according to the manufacturer’s instructions. […] Before measurements, plates were equilibrated in a CO2-free incubator at 37 °C for 1 h. The analysis was performed using 1.5 µM oligomycin, 0.5 µM carbonyl cyanide-4-(trifluoromethoxy)phenylhydrazone (FCCP), and 1 µM rotenone/antimycin A as indicated. Data were analyzed using the Seahorse XF Cell Mito Stress Test report generator software (Agilent). The extracellular acidification rate (ECAR) was measured in response to the sequential injection of 10 mM glucose, 2 µM oligomycin (H+-ATP-synthase inhibitor), and 50 mM 2-deoxy-d-glucose (2DG) (hexokinase inhibitor) to detect non-glycolytic acidification, glycolysis, maximal glycolytic capacity, and glycolytic reserve using a Seahorse XFp analyzer with a Glycolysis Stress Test kit (Agilent, Santa Clara, CA, USA).

K562 [1] = assay: Seahorse XFp Glycolysis Stress test (ECAR); type: cell-based, human; settings: K562, EE-84 50 μM, 72 h, vs control
Method: as §1

RPMI 1788 [2] = assay: Trypan blue exclusion test, proliferation (GI50) in noncancerous cells; type: cell-based, human; settings: Homo sapiens
Method: (§2) Cell proliferation and viability were assessed by the trypan blue exclusion method (Lonza), and viable cells were counted using a hematocytometer (Marienfeld, Lauda-Königshofen, Germany). Differential toxicity was calculated by comparing the viability of RPMI 1788 cells to the viability of cancer cells (normal/cancer cells). The difference in viability was expressed in terms of fold change.

K562 cells [3] = assay: Cell cycle analysis (PI, FACS); type: cell-based, human
Method: Cells were collected and fixed in 70% ethanol. DNA was stained with propidium iodide (PI) solution (1 μg/mL, Sigma-Aldrich, St. Louis, MO, USA) in 1XPBS (Biosesang, Seongnam, Korea) for 30 min at 37 °C, supplemented with RNase A (100 μg/mL, Roche, Basel, Switzerland). Samples were analyzed by flow cytometry using the FACSCalibur^TM system, Becton Dickinson (BD) Biosciences (San Jose, CA, USA). Data were recorded statistically (10,000 events/sample) using the Cell Quest software (BD Biosciences) and analyzed using Flow-Jo 8.8.5 software (Tree Star, Inc., Ashland, OR, USA).

K562 cells [4] = assay: Trypan blue exclusion test, proliferation (GI50); type: cell-based, human; settings: Homo sapiens
Method: as §2

K562 [5] = assay: Methocult colony formation assay; type: cell-based, human; settings: K562, 48-h pretreatment
Method: For 48 h pretreatment of EE-84 colony formation assays, approximately 3 × 10^5 cells were seeded in each well of a 24-well plate, treated with EE-84 at indicated concentrations, and incubated at 37 °C and 5% of CO2 in a humidified atmosphere for 48 h. After 48 h, 1000 cells were counted and grown in a semisolid methylcellulose medium (Methocult H4230, StemCell Technologies Inc., Vancouver, BC, Canada) supplemented with 10% FBS. Colonies were detected after 10 days of culture by adding 1 mg/mL of 3-(4,5-dimethylthiazol-2-yl)-2,5-diphenyltetrazolium bromide (MTT) reagent (Sigma-Aldrich) and were analyzed by Image J 1.8.0 software (U.S. National Institute of Health, Bethesda, MD, USA).

K562 cells [6] = assay: Trypan blue exclusion test, viability; type: cell-based, human; settings: Homo sapiens
Method: as §2

MEG01 = assay: Trypan blue exclusion test, proliferation (GI50); type: cell-based; settings: Homo sapiens, MEG-01
Method: as §2

KBM5 = assay: Trypan blue exclusion test, proliferation (GI50); type: cell-based; settings: Homo sapiens
Method: as §2

KBM5IR = assay: Trypan blue exclusion test, proliferation (GI50); type: cell-based
Method: as §2

K562IR = assay: Trypan blue exclusion test, proliferation (GI50); type: cell-based; settings: Homo sapiens
Method: as §2

K562 [7] = assay: Seahorse XFp Cell Mito Stress test (OCR); type: cell-based, human; settings: K562, EE-84 30 µM, 72 h, vs control
Method: as §1

RPMI 1788 [8] = assay: Trypan blue exclusion test, viability (IC50) in noncancerous cells; type: cell-based, human; settings: for IC50: Homo sapiens, read-out: IC50 (50% cell death)
Method: as §2

K562 cells [9] = assay: Hoechst/PI staining by fluorescent microscopy; type: cell-based, human; settings: K562, 50 μM, 72 h
Excerpt: The percentage of apoptotic cells was quantified as the fraction of cells showing fragmented nuclei, as assessed by fluorescence microscopy (Nikon, Tokyo, Japan) after staining with Hoechst 33342 (Sigma-Aldrich) and propidium iodide (Sigma-Aldrich). In addition, apoptosis was confirmed by Annexin V APC (Biolegend, 640919)/propidium iodide (BD Biosciences, 556547) staining and fluorescence-activated cell sorter (FACS) analysis according to the manufacturer protocol (BD Biosciences, 556547).

COc1ccc2c(c1)c(C(=O)C(=O)Nc1sc3c(c1C(C)=O)CC(C)CC3)cn2Cc1ccccc1 (stereo not shown) [EE-84, N-(3-Acetyl-4,5,6,7-Tetrahydro-5-Methylbenzo[b]Thiophen-2-yl)-2-(1-Benzyl-5-Methoxy-1H-Indol-3-yl)-2-Oxoacetamide]
glycolytic capacity of ECAR (K562IR cells): significantly decreased | glycolysis and glycolytic capacity (ECAR) (K562 [1]): significantly decreased | GI50 (RPMI 1788 [2]; RPMI 1788, 24 h): > 50 µM | GI50 (RPMI 1788 [2]; RPMI 1788, 48 h): > 50 µM | GI50 (RPMI 1788 [2]; RPMI 1788, 72 h): 40.1 ± 3.79 µM | G1 cell cycle phase (K562 cells [3]; K562, 48 h, EE-84 10 μM): 59.59 ± 1.12% | G2/M cell cycle phase (K562 cells [3]; K562, 48 h, EE-84 10 μM): 18.64 ± 0.75% | S cell cycle phase (K562 cells [3]; K562, 48 h, EE-84 10 μM): 20.30 ± 1.68% | Sub-G1 cell cycle phase (K562 cells [3]; K562, 48 h, EE-84 10 μM): 1.48 ± 0.81% | G1 cell cycle phase (K562 cells [3]; K562, 48 h, EE-84 30 μM): 61.11 ± 1.58% | G2/M cell cycle phase (K562 cells [3]; K562, 48 h, EE-84 30 μM): 13.25 ± 0.32% | S cell cycle phase (K562 cells [3]; K562, 48 h, EE-84 30 μM): 20.99 ± 0.83% | Sub-G1 cell cycle phase (K562 cells [3]; K562, 48 h, EE-84 30 μM): 4.65 ± 2.42% | G1 cell cycle phase (K562 cells [3]; K562, 48 h, EE-84 50 μM): 58.40 ± 2.81% | G2/M cell cycle phase (K562 cells [3]; K562, 48 h, EE-84 50 μM): 12.86 ± 1.46% | S cell cycle phase (K562 cells [3]; K562, 48 h, EE-84 50 μM): 20.41 ± 1.84% | Sub-G1 cell cycle phase (K562 cells [3]; K562, 48 h, EE-84 50 μM): 8.34 ± 1.51% | G1 cell cycle phase (K562 cells [3]; K562, 72 h, EE-84 10 μM): 60.83 ± 2.33% | G2/M cell cycle phase (K562 cells [3]; K562, 72 h, EE-84 10 μM): 17.57 ± 0.90% | S cell cycle phase (K562 cells [3]; K562, 72 h, EE-84 10 μM): 17.52 ± 4.24% | Sub-G1 cell cycle phase (K562 cells [3]; K562, 72 h, EE-84 10 μM): 4.08 ± 2.80% | G1 cell cycle phase (K562 cells [3]; K562, 72 h, EE-84 30 μM): 55.09 ± 2.26% | G2/M cell cycle phase (K562 cells [3]; K562, 72 h, EE-84 30 μM): 17.03 ± 2.69% | S cell cycle phase (K562 cells [3]; K562, 72 h, EE-84 30 μM): 21.55 ± 1.64% | Sub-G1 cell cycle phase (K562 cells [3]; K562, 72 h, EE-84 30 μM): 6.33 ± 0.74% | G1 cell cycle phase (K562 cells [3]; K562, 72 h, EE-84 50 μM): 52.03 ± 2.99% | G2/M cell cycle phase (K562 cells [3]; K562, 72 h, EE-84 50 μM): 15.08 ± 2.89% | S cell cycle phase (K562 cells [3]; K562, 72 h, EE-84 50 μM): 19.85 ± 1.33% | Sub-G1 cell cycle phase (K562 cells [3]; K562, 72 h, EE-84 50 μM): 13.03 ± 1.19% | GI50 (K562 cells [4]; K562, 48 h): 32.2 ± 3.91 µM | GI50 (K562 cells [4]; K562, 72 h): 19.1 ± 0.8 µM | total surface area and average size of colonies (K562 [5]): reduced | viability at 30 µM (K562 cells [6]; K562, EE-84 30 μM 48 h with Baf-A1 (40 nM) post-treatment for last 8 h, read-out: cell viability): 89% | viability at 30 µM (K562 cells [6]; K562, EE-84 30 µM, 24 h, read-out: Viability (24 h)): 98 ± 1% | viability at 30 µM (K562 cells [6]; K562, EE-84 30 μM, 48 h, alone, read-out: cell viability): 98.7% | viability at 50 µM (K562 cells [6]; K562, EE-84 50 µM, 24 h): 96 ± 0.7% | GI50 (MEG01; MEG01, 24 h): > 50 µM | GI50 (MEG01; MEG01, 48 h): 48.4 ± 5.02 µM | GI50 (MEG01; MEG01, 72 h): 28.9 ± 1.52 µM | GI50 (KBM5; KBM5, 24 h): > 50 µM | GI50 (KBM5; KBM5, 48 h): 34 ± 1.89 µM | GI50 (KBM5; KBM5, 72 h): 28.1 ± 1.68 µM | GI50 (KBM5IR; 24 h): > 100 µM | GI50 (KBM5IR; 48 h): 32.8 ± 2.25 µM | GI50 (KBM5IR; 72 h): 29.2 ± 2.05 µM | GI50 (K562IR; 24 h): > 100 µM | GI50 (K562IR; 48 h): 95.6 ± 16.6 µM | GI50 (K562IR; 72 h): 55.1 ± 3.28 µM | oxygen consumption rate (OCR) (K562 [7]): significantly decreased | IC50 (RPMI 1788 [8]; RPMI 1788, 24 h): > 50 µM | IC50 (RPMI 1788 [8]; RPMI 1788, 48 h): > 50 µM | IC50 (RPMI 1788 [8]; RPMI 1788, 72 h): > 50 µM | differential toxicity RPMI-1788/K562 cells (RPMI 1788 [8]; at 40 and 50 µM, viability normal/cancer cells): significant differential toxicity | viability of RPMI 1788 cells (RPMI 1788 [8]; up to 50 µM, Figure S4B): did not significantly affect | propidium iodide (PI)-positive cells without nuclear fragmentation (K562 cells [9]): 11.0 ± 4.23%
